# Data taken from PubChem BioAssay (NCI).
#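 Values below derive from 48-hour exposures of cells grown in 96-well plates, with endpoints linearly interpolated between the two concentrations bracketing the appropriate inhibition level. TGI: total growth inhibition.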
# Assays:
# Assay in all cases: NCI-60 cell line screen, 48 h
# 786-0 renal = system: 786-0 renal
# A498 renal = system: A498 renal
# A549 NSCLC = system: A549 NSCLC
# ACHN renal = system: ACHN renal
# CAKI-1 renal = system: CAKI-1 renal
# CCRF-CEM leukemia = system: CCRF-CEM leukemia
# COLO 205 colon = system: COLO 205 colon
# DLD-1 colon = system: DLD-1 colon
# DMS 114 small cell lung = system: DMS 114 small cell lung
# DMS 273 small cell lung = system: DMS 273 small cell lung
# EKVX NSCLC = system: EKVX NSCLC
# HCC-2998 colon = system: HCC-2998 colon
# HCT-116 colon = system: HCT-116 colon
# HCT-15 colon = system: HCT-15 colon
# HL-60(TB) leukemia = system: HL-60(TB) leukemia
# HOP-62 NSCLC = system: HOP-62 NSCLC
# HOP-92 NSCLC = system: HOP-92 NSCLC
# HT29 colon = system: HT29 colon
# IGROV1 ovarian = system: IGROV1 ovarian
# K-562 leukemia = system: K-562 leukemia
# KM12 colon = system: KM12 colon
# KM20L2 colon = system: KM20L2 colon
# LOX IMVI melanoma = system: LOX IMVI melanoma
# LXFL 529 NSCLC = system: LXFL 529 NSCLC
# M14 melanoma = system: M14 melanoma
# M19-MEL melanoma = system: M19-MEL melanoma
# MALME-3M melanoma = system: MALME-3M melanoma
# MOLT-4 leukemia = system: MOLT-4 leukemia
# NCI-H226 lung = system: NCI-H226 lung
# NCI-H23 lung = system: NCI-H23 lung
# NCI-H460 lung = system: NCI-H460 lung
# NCI-H522 lung = system: NCI-H522 lung
# OVCAR-3 ovarian = system: OVCAR-3 ovarian
# OVCAR-4 ovarian = system: OVCAR-4 ovarian
# OVCAR-5 ovarian = system: OVCAR-5 ovarian
# OVCAR-8 ovarian = system: OVCAR-8 ovarian
# RPMI-8226 leukemia = system: RPMI-8226 leukemia
# RXF 393 renal = system: RXF 393 renal
# SF-268 CNS = system: SF-268 CNS
# SF-295 CNS = system: SF-295 CNS
# SF-539 CNS = system: SF-539 CNS
# SK-MEL-2 melanoma = system: SK-MEL-2 melanoma
# SK-MEL-28 melanoma = system: SK-MEL-28 melanoma
# SK-MEL-5 melanoma = system: SK-MEL-5 melanoma
# SK-OV-3 ovarian = system: SK-OV-3 ovarian
# SN12C renal = system: SN12C renal
# SNB-19 CNS = system: SNB-19 CNS
# SNB-75 CNS = system: SNB-75 CNS
# SNB-78 CNS = system: SNB-78 CNS
# SR leukemia = system: SR leukemia
# SW-620 colon = system: SW-620 colon
# TK-10 renal = system: TK-10 renal
# U251 CNS = system: U251 CNS
# UACC-62 melanoma = system: UACC-62 melanoma
# UO-31 renal = system: UO-31 renal
# XF 498 CNS = system: XF 498 CNS
smiles,measurement,setting,value
CC(=O)OC1CC2C(C)(C)OC(=O)CC(OC(C)=O)[C@]2(C)C2CCC3(C)C(=CCC3[C@H]3COC(=O)C3)[C@]12C (stereo partly specified),TGI,786-0 renal,> 100 µM
same,TGI,A498 renal,> 100 µM
same,TGI,A549 NSCLC,> 100 µM
same,TGI,ACHN renal,> 100 µM
same,TGI,CAKI-1 renal,> 100 µM
same,TGI,CCRF-CEM leukemia,65.8 µM
same,TGI,COLO 205 colon,> 100 µM
same,TGI,DLD-1 colon,> 100 µM
same,TGI,DMS 114 small cell lung,> 100 µM
same,TGI,DMS 273 small cell lung,> 100 µM
same,TGI,EKVX NSCLC,> 100 µM
same,TGI,HCC-2998 colon,> 100 µM
same,TGI,HCT-116 colon,> 100 µM
same,TGI,HCT-15 colon,> 100 µM
same,TGI,HL-60(TB) leukemia,> 100 µM
same,TGI,HOP-62 NSCLC,> 100 µM
same,TGI,HOP-92 NSCLC,> 100 µM
same,TGI,HT29 colon,> 100 µM
same,TGI,IGROV1 ovarian,> 100 µM
same,TGI,K-562 leukemia,> 100 µM
same,TGI,KM12 colon,> 100 µM
same,TGI,KM20L2 colon,> 100 µM
same,TGI,LOX IMVI melanoma,> 100 µM
same,TGI,LXFL 529 NSCLC,> 100 µM
same,TGI,M14 melanoma,> 100 µM
same,TGI,M19-MEL melanoma,> 100 µM
same,TGI,MALME-3M melanoma,> 100 µM
same,TGI,MOLT-4 leukemia,89.5 µM
same,TGI,NCI-H226 lung,> 100 µM
same,TGI,NCI-H23 lung,> 100 µM
same,TGI,NCI-H460 lung,> 100 µM
same,TGI,NCI-H522 lung,> 100 µM
same,TGI,OVCAR-3 ovarian,> 100 µM
same,TGI,OVCAR-4 ovarian,> 100 µM
same,TGI,OVCAR-5 ovarian,> 100 µM
same,TGI,OVCAR-8 ovarian,> 100 µM
same,TGI,RPMI-8226 leukemia,> 100 µM
same,TGI,RXF 393 renal,> 100 µM
same,TGI,SF-268 CNS,> 100 µM
same,TGI,SF-295 CNS,> 100 µM
same,TGI,SF-539 CNS,> 100 µM
same,TGI,SK-MEL-2 melanoma,> 100 µM
same,TGI,SK-MEL-28 melanoma,> 100 µM
same,TGI,SK-MEL-5 melanoma,> 100 µM
same,TGI,SK-OV-3 ovarian,> 100 µM
same,TGI,SN12C renal,> 100 µM
same,TGI,SNB-19 CNS,> 100 µM
same,TGI,SNB-75 CNS,> 100 µM
same,TGI,SNB-78 CNS,> 100 µM
same,TGI,SR leukemia,78.1 µM
same,TGI,SW-620 colon,> 100 µM
same,TGI,TK-10 renal,> 100 µM
same,TGI,U251 CNS,> 100 µM
same,TGI,UACC-62 melanoma,> 100 µM
same,TGI,UO-31 renal,> 100 µM
same,TGI,XF 498 CNS,> 100 µM
